In patent publication US11246818B2, “Peptides and compositions for use in cosmetics” (LIPOTRUE, S.L., priority 2017, dated 2022):

What was measured:
[1] = DPPH free radical scavenging assay in tubo; format: biochemical
From the text: The capacity to scavenge the stable DPPH free radical can be expressed as a measure of antioxidant activity.
During this assay, the purple chromogen (DPPH) radical was reduced by antioxidant/reducing compounds to the corresponding pale-yellow hydrazine. The reduction of the purple chromogen radical by hydrogen-donating antioxidants was monitored by the decrease of optical density at long wavelengths (515-520 nm).
Ascorbic acid was also included in the assay as positive control for scavenger activity evaluation at 30 μM and 60 μM. After 30 minutes of incubation at room temperature and gentle shaking, the absorbance at 520 nm of each well was determined using the microplate reader Multiskan FC (Thermo Fisher Scientific, MA, USA), being directly proportional to the amount of DPPH left (not-scavenged) in the reaction mixture. Absorbance values were normalized on the basis of the control (non-treated wells) which was stablished as 100%, obtaining the corresponding percentage of activity for each of the treatments.

[2] = Trolox Equivalent Antioxidant Capacity (TEAC), ABTS Decolorization Assay; format: biochemical
Experimental: As positive controls of the assay, ascorbic acid 2-glucoside (hereinafter, AA-2G) and magnesium ascorbyl phosphate (hereinafter, MAP) were tested.
TEAC assay was used in this case. Said assay measures the antioxidant capacity of a given substance, as compared to the standard, Trolox, an analogue of Vitamin E.
Antioxidant capacity was measured using the ABTS Decolorization Assay. In this assay, the pre-formed radical monocation of 2,2′-azinobis-(3-ethylbenzothiazoline-6-sulfonic acid) (ABTS*+) was generated by oxidation of ABTS with potassium persulfate and was reduced in the presence of antioxidants (Ac-SEQ ID NO: 1-NH2, Ac-SEQ ID NO: 2-NH2, Ac-SEQ ID NO: 3-NH2 or Ferulic acid-SEQ ID NO: 2-NH2). The ABTS.+ has a blue-green color, with maximum absorptions at 650, 734 and 820 nm. Antioxidants in the sample reduce ABTS.+ suppressing this color production to a degree that is proportional to their concentrations and antioxidant capacity. Quantification of absorbance was conducted at 734 nm using a Polarstar Omega equipment (BMG Labtech).

[3] = tested on: Primary human epidermal melanocytes; assay: Brightening activity: intracellular melanin content; format: cell-based; details: 7 days; for decrease in melanin content compared with positive reference control (kojic acid): 70 μM kojic acid
Experimental: Two concentrations of kojic acid were used as positive control.
(§1) Kojic acid was used as positive control.
Primary human epidermal melanocytes were incubated in 6-well plates for 4 days and then treated with the compounds to be analysed (Ac-SEQ ID NO: 1-NH2, Ac-SEQ ID NO: 2-NH2, Ac-SEQ ID NO: 3-NH2 or Ferulic acid-SEQ ID NO: 2-NH2) for 7 days. After treatment, cells were homogenized an intracellular melanin content was quantified by absorbance at 450 nm by Multiskan FC (Thermo Fisher Scientific, MA, USA).

HEKa cells = assay: Gene expression of HEMn-HEKa communication and melanogenic factors, HEKa cells, 24-hour treatment (RTqPCR); format: cell-based, human
From the text: (§2) Changes in gene expression levels are represented as a positive or negative fold-change with regard to the basal control (untreated cells). Bars from top to bottom in the y-axis refer to: KITLG (KIT ligand), TP53 (Tumor protein p53), DKK1 (Dickkopf-related protein 1) and NGF (Nerve growth factor). The x-axis refers to fold change verus basal control.
as §2, with “POMC (Pro-opiomelanocortin), EDN1 (Endothelin-1)” for “TP53 (Tumor protein p53), DKK1 (Dickkopf-related protein 1)”, “versus” for “verus”
Briefly, HEKa cells were seeded in duplicate in 6-well plates at a density of 4×10^5 cells/well and maintained at standard culture conditions (37° C., 95% humidity, 5% CO2) for 24 hours. Then, cells were treated with non-cytotoxic concentrations of Ac-SEQ ID NO: 3-NH2 (0.1 mg/mL) or Ferulic acid-SEQ ID NO: 2-NH2 (0.05 mg/mL) for an additional 24 hours.
(§3) Untreated cells were used as basal control. Cells were then lysed for RNA extraction with a RNA purification commercial kit following manufacturer instructions (RNeasy mini kit, Qiagen, Netherlands). RNA was then quantified by nanodrop, adjusted in concentration and processed for retrotranscription to cDNA using a commercially available kit (High-Capacity cDNA Reverse Transcription kit—Thermofisher Scientific, USA). Resulting cDNA was used to perform a RTqPCR (Real Time Quantitative Polymerase Chain Reaction) using Taqman technology and a panel of probes designed to target specific genes related to melanogenesis and HEMn-HEKa and HEMn-HDFa communication.

[4] = tested on: recombinant mushroom tyrosinase; assay: Mushroom tyrosinase activity in tubo (L-DOPA); format: biochemical
Experimental: as §1, §1
After 2 hours' reaction at room temperature, the absorbance at 450 nm of each well was determined using the microplate reader Multiskan FC (Thermo Fisher Scientific, MA, USA), which is directly proportional to the amount of dopachrome in the reaction mixture.

HEMn cells [5] = assay: Gene expression of melanogenic pathways, HEMn cells, 11-day treatment (RTqPCR); format: cell-based, human
From the text: Changes in gene expression levels are represented as a positive or negative fold-change with regard to the basal control (untreated cells). For FIG. 16(A), bars from top to bottom in the y-axis refer to: COX-1 (Cyclooxigenase-1), MITF ([…]), MC1R (Melanocortin-1 receptor), MLAN-A (Melanoma antigen recognized by T-cells), C-KIT (Protoongogen receptor tyrosine kinase KIT), PMEL17 (Pre-melanosome protein), DCT-TYRP2 (Dopachrome tautomerase), TYRP-1 (Tyrosinase related protein 1) and TYR (Tyrosinase). For FIG. 16(B), bars from top to bottom in the y-axis refer to: BLOC-1 (Biogenesis of lysosome-related organelles complex-1), MITF ([…]), MC1R (Melanocortin-1 receptor), MLAN-A (Melanoma antigen recognized by T-cells), C-KIT (Protoongogen receptor tyrosine kinase KIT), PMEL17 (Pre-melanosome protein), DCT-TYRP2 (Dopachrome tautomerase), TYRP-1 (Tyrosinase related protein 1) and TYR (Tyrosinase). The x-axis refers to fold change versus basal control.
Changes in gene expression levels are represented as a positive or negative fold-change with regard to the basal control (untreated cells). Bars from top to bottom in the y-axis refer to: VDR (Vitamin D receptor), PMEL17 (Pre-melanosome protein) and DCT-TYRP2 (Dopachrome tautomerase). The x-axis refers to fold change versus basal control.
In the case of HEMn cells, cells were left in culture for 12 days (from day 0 to day 11, 11-day treatment) at standard culture conditions (37° C., 95% humidity, 5% CO2) and treated with non-cytotoxic concentrations of Ac-SEQ ID NO: 3-NH2 (0.1 mg/mL) or Ferulic acid-SEQ ID NO: 2-NH2 (0.05 mg/mL) from day 4 to day 11.
as §3

HEMn cells [6] = assay: Gene expression of melanogenic pathways, HEMn cells, 24-hour treatment (RTqPCR); format: cell-based, human; details: 0.1 mg/mL, treatment at 24 h
From the text: Changes in gene expression levels are represented as a positive or negative fold-change with regard to the basal control (untreated cells). For FIG. 16(A), bars from top to bottom in the y-axis refer to: COX-1 (Cyclooxigenase-1), MITF ([…]), MC1R (Melanocortin-1 receptor), MLAN-A (Melanoma antigen recognized by T-cells), C-KIT (Protoongogen receptor tyrosine kinase KIT), PMEL17 (Pre-melanosome protein), DCT-TYRP2 (Dopachrome tautomerase), TYRP-1 (Tyrosinase related protein 1) and TYR (Tyrosinase). […]
as §3, with “Cells were then lysed for RNA extraction with a RNA purification commercial kit following manufacturer instructions (RNeasy mini kit, Qiagen, Netherlands).” left out

For `O=C1O[C@H]([C@@H](O)CO)C(O)=C1O` [ascorbic acid, reference compound], the “reduction of DPPH” value ([1]; 30 μM, positive control) was 31.3% and the “reduction of DPPH” value ([1]; 60 μM, positive control) was 67.6%.

“Ac-His-Trp-Phe-Lys-NH2 (Ac-HWFK-NH2) [Ac-SEQ ID NO: 2-NH2]” gave a trolox equivalents ([2]; 0.05 mg/mL) of 22 µM, a trolox equivalents ([2]; 0.1 mg/mL) of 49 µM and a trolox equivalents ([2]; 0.5 mg/mL) of 130 µM. For the same molecule, the “antioxidant power compared with AA-2G and MAP” value ([2]; the higher concentration tested (0.5 mg/mL)) was “higher antioxidant power than AA-2G and MAP”, the “brightening or whitening activity compared with kojic acid” value ([3]; all the concentrations tested (0.01, 0.05, 0.1 mg/ml), kojic acid 10 and 50 μM) was “significantly higher brightening or whitening activity” and the “increased brightening activity relative to the activity of the two concentrations of kojic acid” value ([3]; all the concentrations tested, kojic acid 10 and 50 μM) was “two to more than four times”.

In the case of “Ac-Leu-His-Trp-Phe-Arg-Ala-NH2 (Ac-LHWFRA-NH2) [Ac-SEQ ID NO: 3-NH2]”, the DKK-1 gene expression (HEKa cells; 0.1 mg/mL) is reported as “upregulation”, the KITLG gene expression (HEKa cells; 0.1 mg/mL) is reported as “downregulation” and the NGF gene expression (HEKa cells; 0.1 mg/mL) is reported as “downregulation”. For the same molecule, the TP53 gene expression (HEKa cells; 0.1 mg/mL) was “downregulation”, the “decrease in tyrosinase activity” value ([4]; 0.5 mg/mL) was 30.6% and the “decrease in tyrosinase activity” value ([4]; 1 mg/mL) was 58.1%. For the same molecule, the “C-KIT gene expression, fold change versus basal control” value (HEMn cells [5]; 0.1 mg/mL) was −1.78 fold change, the “COX-1 gene expression, fold change versus basal control” value (HEMn cells [5]; 0.1 mg/mL) was −1.51 fold change and the “DCT-TYRP2 gene expression, fold change versus basal control” value (HEMn cells [5]; 0.1 mg/mL) was −1.40 fold change. The “MC1R gene expression, fold change versus basal control” value (HEMn cells [5]; 0.1 mg/mL) was −1.28 fold change, the “MITF gene expression, fold change versus basal control” value (HEMn cells [5]; 0.1 mg/mL) was −1.48 fold change and the “MLAN-A gene expression, fold change versus basal control” value (HEMn cells [5]; 0.1 mg/mL) was −1.88 fold change. The “PMEL17 gene expression, fold change versus basal control” value (HEMn cells [5]; 0.1 mg/mL) was −2.30 fold change, the “TYR gene expression, fold change versus basal control” value (HEMn cells [5]; 0.1 mg/mL) was −1.66 fold change and the “TYRP-1 gene expression, fold change versus basal control” value (HEMn cells [5]; 0.1 mg/mL) was −1.64 fold change. It also gave a trolox equivalents ([2]; 0.01 mg/mL) of 28 µM, a trolox equivalents ([2]; 0.05 mg/mL) of 59 µM and a trolox equivalents ([2]; 0.1 mg/mL) of 74 µM. For the same molecule, the “decrease in melanin content” value ([3]; 0.1 mg/mL) was 49.3%, the “decrease in melanin content compared with positive reference control (kojic acid)” value [3] was “higher than the positive reference control” and the “expression of genes of the melanogenic pathway” value (HEMn cells [6]) was “tendency to downregulate gene expression was also observed”.

In the case of “Ferulic acid-His-Trp-Phe-Lys-NH2 [Ferulic acid-SEQ ID NO: 2-NH2]”, the EDN1 gene expression (HEKa cells; 0.05 mg/mL) is reported as “downregulation”, the KITLG gene expression (HEKa cells; 0.05 mg/mL) is reported as “downregulation” and the NGF gene expression (HEKa cells; 0.05 mg/mL) is reported as “downregulation”. For the same molecule, the POMC gene expression (HEKa cells; 0.05 mg/mL) was “downregulation”, the “decrease in tyrosinase activity” value ([4]; 0.05 mg/mL) was 12% and the “decrease in tyrosinase activity” value ([4]; 0.1 mg/mL) was 46.5%. For the same molecule, the “decrease in tyrosinase activity” value ([4]; 0.5 mg/mL) was 71%, the “reduction of DPPH” value ([1]; 0.05 mg/mL, 300 μM DPPH, 30 minutes) was 48.3% and the “reduction of DPPH” value ([1]; 0.1 mg/mL, 300 μM DPPH, 30 minutes) was 72.9%. For the same molecule, the “reduction of DPPH” value ([1]; 0.5 mg/mL, 300 μM DPPH, 30 minutes) was 90.6%, the DCT-TYRP2 expression (HEMn cells [5]; 0.05 mg/mL) was “slight tendency to downregulate” and the PMEL17 expression (HEMn cells [5]; 0.05 mg/mL) was “slight tendency to downregulate”. The “VDR gene expression, fold change versus basal control” value (HEMn cells [5]; 0.05 mg/mL) was 1.48 fold change, the trolox equivalents ([2]; 0.01 mg/mL) was 59 µM and the trolox equivalents ([2]; 0.05 mg/mL) was 112 µM. The trolox equivalents ([2]; 0.1 mg/mL) was 113 µM, the “antioxidant power compared with MAP” value ([2]; at this same concentration (0.05 mg/mL)) was “equals MAP values of trolox equivalents” and the “antioxidant power compared with AA-2G” value ([2]; concentrations >0.05 mg/mL) was “higher than the one of AA-2G”. The “decrease in melanin content” value ([3]; 0.05 mg/mL) was 36% and the “decrease in melanin content compared with positive reference control (kojic acid)” value [3] was “comparable”.
